Data reported in patent publication US20130165483A1, “HETEROARYLS AND USES THEREOF” (MILLENNIUM PHARMACEUTICALS, INC., priority 2011, published 2013).

Target: T1, VPS34 (Homo sapiens, UniProt Q8NEB9)
T1 construct: GST (N); host or cells: SF9 insect cells (baculovirus)
Assay: Human VPS34 enzyme assay (Adapta TR-FRET)
Type: biochemical
Conditions: for inhibition at 1.11 µM: 1 h, at a 1.11 μM concentration, read-out: VPS34 Percent Inhibition; for IC50: VPS34 enzyme
Experimental: VPS34 (accession number GB:BC033004) was cloned into pDEST20-Thombin as N-terminal GST tagged fusion proteins using the Gateway system (Invitrogen, catalog#11804-013). The sequences were verified before recombinant protein expression using the Baculovirus Expression System with Gateway® Technology.
For expression VPS34 was infected at 1MOI in SF9 cells and harvested 72 hours post infection.
For purification, VPS34 is purified by Glutathione Sepharose 4 Fast Flow (GE Healthcare #17-5132-03) followed by HiTrap Q (GE Healthcare #17-1153-01).
Human VPS34 enzyme assay method
100mL compounds in DMSO are added to wells of a 384 well microtitre plate (Greiner 780076). At room temperature: 5ul VPS34 reaction buffer (Invitrogen Assay Buffer Q (diluted 1 in 5 with nanopure water) plus 2 mM DTT and 2 mM MnCl2) containing ATP (20 uM, Promega) and 200 uM PI—PS substrate (Invitrogen PV5122) is added followed immediately by 5ul VPS34 reaction buffer (as above) containing VPS34 (5 nM, Millennium Protein Sciences Group) and the mixture is incubated with shaking at room temperature for 1 hour. Then 5ul VPS34 stop-detect mix (as per Invitrogen Adapta Assay kit (PV5009) instructions (contains kinase quench buffer, TR-FRET buffer, Adapta Eu anti-ADP antibody and Alexa Fluor 647 ADP tracer)) is added to quench the reaction. The plates are then incubated for 30 minutes at room temperature with shaking and then read on a BMG PheraStar Plus reader.
For the assay methods described above, test compound percent inhibition, at various concentrations, is calculated relative to control (DMSO and EDTA) treated samples. Compound concentration versus percent inhibition curves are fitted to generate IC50 values. One skilled in the art will appreciate that the values generated either as percentage inhibition at a single concentration or IC50 values are subject to experimental variation.

T1 sequence (Q8NEB9 whole entry): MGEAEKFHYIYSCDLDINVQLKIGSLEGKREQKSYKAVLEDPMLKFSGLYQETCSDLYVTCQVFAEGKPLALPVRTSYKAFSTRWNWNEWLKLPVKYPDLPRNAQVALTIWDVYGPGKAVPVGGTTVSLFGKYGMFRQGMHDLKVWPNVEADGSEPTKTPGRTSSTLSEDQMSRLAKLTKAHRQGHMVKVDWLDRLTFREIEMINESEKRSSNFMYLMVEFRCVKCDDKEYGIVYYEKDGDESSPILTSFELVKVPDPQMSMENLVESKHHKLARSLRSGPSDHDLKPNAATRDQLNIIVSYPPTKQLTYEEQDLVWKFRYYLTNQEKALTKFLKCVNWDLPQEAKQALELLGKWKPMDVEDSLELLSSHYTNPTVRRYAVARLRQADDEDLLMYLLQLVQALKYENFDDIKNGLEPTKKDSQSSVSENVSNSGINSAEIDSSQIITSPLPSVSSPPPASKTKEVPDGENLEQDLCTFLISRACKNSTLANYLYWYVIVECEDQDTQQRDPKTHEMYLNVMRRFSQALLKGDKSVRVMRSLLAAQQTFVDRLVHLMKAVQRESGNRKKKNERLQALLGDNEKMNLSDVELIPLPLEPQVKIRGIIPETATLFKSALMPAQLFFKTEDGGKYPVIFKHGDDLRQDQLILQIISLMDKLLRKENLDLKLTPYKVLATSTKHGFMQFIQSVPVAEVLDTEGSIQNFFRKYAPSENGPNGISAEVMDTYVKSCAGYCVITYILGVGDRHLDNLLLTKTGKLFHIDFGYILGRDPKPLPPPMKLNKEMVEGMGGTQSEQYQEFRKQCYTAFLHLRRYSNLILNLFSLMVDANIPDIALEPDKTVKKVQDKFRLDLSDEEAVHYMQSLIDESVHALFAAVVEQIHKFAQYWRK

| Compound | inhibition at 1.11 µM [%] | IC50 [nM] |
| --- | --- | --- |
| CC(=O)Nc1cc(-c2cc(-c3ccccc3Cl)n(-c3nccs3)n2)ccn1 [I-3, N-[4-[5-(2-chlorophenyl)-1-(1,3-thiazol-2-yl)-1H-pyrazol-3-yl]pyridin-2-yl]acetamide] | 6 | 1000 to 10000 |
| CC(=O)Nc1cc(-c2cc(C(N)=O)n(-c3ccccc3Cl)n2)ccn1 [I-14, 3-(2-acetamidopyridin-4-y1)-1-(2-chlorophenyl)-1H-pyrazole-5-carboxamide] | 45 | 1000 to 10000 |
| C=CCn1cc(-c2cc(NC(=O)C3CC3)ncc2C)cc1-c1nc[nH]n1 [I-88, N-{4-[1-allyl-5-(1H-1,2,4-triazol-3-yl)-1H-pyrrol-3-yl]-5-methylpyridin-2-yl}cyclopropanecarboxamide] | 69 | < 100 |
| CC(=O)Nc1cc(-c2cc(C(N)=O)n(-c3ccc(N)cc3Cl)c2)c(C)cn1 [I-89, 4-(2-acetamido-5-methylpyridin-4-yl)-1-(4-amino-2-chlorophenyl)-1H-pyrrole-2-carboxamide] | > 99 | < 100 |
| CC(=O)Nc1cc(-c2cc(C(N)=O)n(-c3ncccc3Cl)c2)c(C)cn1 [I-90, 4-(2-acetamido-5-methylpyridin-4-yl)-1-(3-chloropyridin-2-yl)-1H-pyrrole-2-carboxamide] | 39 | 1000 to 10000 |
| CC(=O)Nc1cc(-c2cc(-c3nc[nH]n3)n(-c3ccccc3Cl)c2)c(C)cn1 [I-93, N-{4-[1-(2-chlorophenyl)-5-(1H-1,2,4-triazol-3-yl)-1H-pyrrol-3-yl]-5-methylpyridin-2-yl}acetamide] | > 99 | < 100 |
| CCCn1cc(-c2cc(NC(=O)C3CC3)ncc2C)cc1-c1nc[nH]n1 [I-94, N-{5-methyl-4-[1-propyl-5-(4H-1,2,4-triazol-3-yl)-1H-pyrrol-3-yl]pyridin-2-yl}cyclopropanecarboxamide] | > 99 | 100 to 1000 |
| CC(=O)Nc1cc(-c2cc(C(N)=O)c(-c3ccnc(NC(C)=O)c3)n2C)ccn1 [I-95, 2,5-bis(2-acetamidopyridin-4-yl)-1-methyl-1H-pyrrole-3-carboxamide] | 18 | 1000 to 10000 |
| CC(=O)Nc1cc(-c2cc(-c3nc[nH]n3)n(-c3ncccc3Cl)c2)c(C)cn1 [I-96] | 96 | 100 to 1000 |
| CC(=O)Nc1cc(-c2cc(C(N)=O)n(-c3ccccc3Cl)c2)c(C)cn1 [I-97, 4-(2-acetamido-5-methylpyridin-4-yl)-1-(2-chlorophenyl)-1H-pyrrole-2-carboxamide] | 96 | 100 to 1000 |
| Cc1cnc(NC(=O)C2CC2)cc1-c1cc(-c2nc[nH]n2)n(-c2ccccc2Cl)c1 [I-98, N-{4-[1-(2-chlorophenyl)-5-(1H-1,2,4-triazol-3-yl)-1H-pyrrol-3-yl]-5-methylpyridin-2-yl}cyclopropanecarboxamide] | > 99 | < 100 |
| Cc1cnc(NC(=O)C2CC2)cc1-c1cc(C(N)=O)n(-c2ccccc2Cl)c1 [I-99, 1-(2-chlorophenyl)-4-{2-[(cyclopropylcarbonyl)amino]-5-methylpyridin-4-yl}-1H-pyrrole-2-carboxamide] | 93 | 100 to 1000 |
| CC(=O)Nc1cc(-c2cc(-c3ccccc3C)c(C(N)=O)[nH]2)ccn1 [I-102, 5-(2-acetamidopyridin-4-yl)-3-(2-methylphenyl)-1H-pyrrole-2-carboxamide] | 96 | 100 to 1000 |
| CC(=O)Nc1cc(-c2cc(-c3ccccc3C)c(C(N)=O)n2C)ccn1 [I-104, 5-(2-acetamidopyridin-4-yl)-1-methyl-3-(2-methylphenyl)-1H-pyrrole-2-carboxamide] | 7 | 1000 to 10000 |

Other lines, results leading:

| inhibition at 1.11 µM [%] | IC50 [nM] | Compound |
| --- | --- | --- |
| > 99 | < 100 | CC(=O)Nc1cc(-c2cc(-c3nnc[nH]3)n(-c3ccc(Cl)cc3Cl)n2)ccn1 [I-15, N-{4-[1-(2,4-dichlorophenyl)-5-(4H-1,2,4-triazol-3-yl)-1H-pyrazol-3-yl]pyridin-2-yl}acetamide] |
| 96 | 100 to 1000 | CC(=O)Nc1cc(-c2cc(-c3nnc[nH]3)n(-c3ccccc3Cl)n2)ccn1 [I-21, N-{4-[1-(2-chlorophenyl)-5-(1H-1,2,4-triazol-3-yl)-1H-pyrazol-3-yl]pyridin-2-yl}acetamide] |
| > 99 | 100 to 1000 | CCn1cc(-c2nnc[nH]2)cc1-c1ccnc(NC(C)=O)c1 [I-86, N-{4-[1-ethyl-4-(4H-1,2,4-triazol-3-yl)-1H-pyrrol-2-yl]pyridin-2-yl}acetamide] |
| 93 | 100 to 1000 | CC(=O)Nc1cc(-c2cc(-c3nnc[nH]3)cn2CC2CC2)ccn1 [I-87, N-{4-[1-(cyclopropylmethyl)-4-(4H-1,2,4-triazol-3-yl)-1H-pyrrol-2-yl]pyridin-2-yl}acetamide] |
| > 99 | < 100 | CC(=O)Nc1cc(-c2cc(-c3nnc[nH]3)n(CC3CC3)c2)c(C)cn1 [I-91, N-{4-[1-(cyclopropylmethyl)-5-(4H-1,2,4-triazol-3-yl)-1H-pyrrol-3-yl]-5-methylpyridin-2-yl}acetamide] |
| 68 | 100 to 1000 | CC(=O)Nc1cc(-c2cc(C(N)=O)n(CC3CC3)c2)c(C)cn1 [I-92, 4-(2-acetamido-5-methylpyridin-4-yl)-1-(cyclopropylmethyl)-1H-pyrrole-2-carboxamide] |
| 54 | 100 to 1000 | CCn1cc(C(N)=O)cc1-c1ccnc(NC(C)=O)c1 [I-100, 5-(2-acetamidopyridin-4-yl)-1-ethyl-1H-pyrrole-3-carboxamide] |
| 60 | 100 to 1000 | CC(=O)Nc1cc(-c2cc(-c3ccccc3C)c(-c3nnc[nH]3)[nH]2)ccn1 [I-101, N-{4-[4-(2-methylphenyl)-5-(4H-1,2,4-triazol-3-yl)-1H-pyrrol-2-yl]pyridin-2-yl}acetamide] |
| 39 | 1000 to 10000 | CC(=O)Nc1cc(-c2cc(-c3ccccc3C)c(-c3nc[nH]n3)n2C)ccn1 [I-103, N-{4-[1-methyl-4-(2-methylphenyl)-5-(1H-1,2,4-triazol-3-yl)-1H-pyrrol-2-yl]pyridin-2-yl}acetamide] |
